{"source": "patent US20190262457A1", "about": "“NOVEL ALKYLATING AGENT” (CHIBA-PREFECTURE, priority 2016, published 2019)", "key": {"[1]": {"settings": "known log-P of calibration compounds; cited from earlier work"}, "[2]": {"settings": "known log-P of calibration compounds; cited from earlier work", "remark": "listed apart in the source"}, "[3]": {"tested_on": "RKO cells", "assay": "Cytotoxicity and IC50 comparison with CBI by WST assay, 48 hours", "assay_type": "cell-based, human", "settings": "Homo sapiens, WST-8", "method": "(§1) From the cell lines mentioned above, a large intestine cancer cell line SW480 was used as cells expressing PD-1, and a large intestine cancer cell line RKO was used as cells expressing PD-L1. An experiment was conducted to compare toxicity and IC50 between the PIP-drug conjugate compound CCC07-01 and the alkylating agent CBI used as a drug conjugate therein. The cells of each line were inoculated at 3000 cells/well to a 96-well microplate and cultured overnight. On the next day, the cells were treated with the PIP-CBI conjugate (CCC07-01) or CBI having a concentration of 0.1, 1, 10, 30, 100, 300, or 1000 nM (1 μM) for 48 hours. Then, WST-8 reagent was added to each well using Cell counting kit-8, and the mixture was reacted for 2 hours. Then, the cell count was calculated at a wavelength of 450 nm by the colorimetric analysis method using a microplate reader. The method for calculating the cell count involved: 1) obtaining the mean value of a medium alone, 2) subtracting the mean value of the medium from each well, 3) obtaining the mean value of DMSO, 4) dividing the medium mean value-subtracted value by the mean value of DMSO and then multiplying by 100, and 5) obtaining the mean value of each treatment group and a standard deviation, and preparing a graph. IC50 was calculated according to the following expression: IC50=10(LOG(A/B)×(50−C)/(D−C)+LOG(B) wherein A: a higher concentration of two concentrations sandwiching 50%, B: a lower concentration of two concentrations sandwiching 50%, C: the rate of inhibition at B, and D: the rate of inhibition at A."}, "[4]": {"tested_on": "SW480 cells", "assay": "Cytotoxicity and IC50 comparison with CBI by WST assay, 48 hours", "assay_type": "cell-based, human", "settings": "Homo sapiens, WST-8", "method": "as §1"}, "[5]": {"tested_on": "PD-L1 gene", "assay": "Experiment to silence PD-L1 gene by real-time PCR, CCC07-03", "assay_type": "cell-based, human", "method": "(§2) RKO cells were cultured at 1×10^5 cells/well in a 6-well plate. On the next day, the cells were treated with 0, 5, 50, or 500 nM CCC07-03 for 6 hours, 24 hours, or 48 hours. The cells were recovered, and total RNA was extracted therefrom. The extraction employed AllPrep DNA/RNA Mini Kit (Qiagen N.V., CA). Next, cDNA was prepared by reverse transcription with the extracted RNA as a template using Super Script VILO™ Master Mix (Invitrogen Corp., CA) and subjected to qPCR. The qPCR conditions involved a holding stage at 50° C. for 2 min and 95° C. for 10 min, a cycling stage (40 cycles) at 95° C. for 15 sec and at 60° C. for 1 min, and a melt curve stage at 95° C. for 15 sec, at 60° C. for 1 min, at 95° C. for 30 sec, and at 60° C. for 15 sec. A relative expression level was quantified with GAPDH as a control. The PCR of PD-L1 employed the following primer set."}, "[6]": {"tested_on": "CTLA4 gene", "assay": "Experiment to silence CTLA4 gene by real-time PCR, CCC07-03", "assay_type": "cell-based, human", "settings": "A2058 cells", "method": "as §2, with “A2058” for “RKO”, “GAPDH (primers: SEQ ID NOs: 21 and 22)” for “GAPDH”, “CTLA4” for “PD-L1”"}, "[7]": {"tested_on": "CTLA4 gene", "assay": "Study on CTLA4 gene silencing by negative control polyamide CCC07-04", "assay_type": "cell-based, human", "settings": "A2058 cells", "method": "as §2, with “A2058” for “RKO”, “CCC07-04” for “CCC07-03”, “GAPDH (primers: SEQ ID NOs: 21 and 22)” for “GAPDH”, “CTLA4” for “PD-L1”"}, "[8]": {"tested_on": "mouse Pd-11 gene", "assay": "Experiment to silence mouse Pd-11 gene by real-time PCR", "assay_type": "cell-based", "settings": "B16F1 cells", "method": "as §2, with “B16F1” for “RKO”, “100, 200, 300, 400,” for “5, 50,”, “CCC07-04” for “CCC07-03”, “(3-tubulin” for “GAPDH”, “Pd-11” for “PD-L1”"}, "[9]": {"tested_on": "malignant melanoma", "settings": "phase III clinical trial; cited from earlier work"}, "[10]": {"settings": "24 hours or later after administration"}}, "note": "Read-outs that look alike come from different tables or passages of the source.", "data": [{"compound": "c1ccc2[nH]ccc2c1", "note": "[Indole]", "values": [{"measurement": "logPow", "setting": "[1]", "value": 2.14}, {"measurement": "logPow", "setting": "[2]", "value": 2.14}]}, {"compound": "Oc1cc2c(c3ccccc13)C(CCl)CN2", "note": "(stereo not shown) [CBI, 1-chloromethyl-5-hydroxy-1,2-dihydro-3H-benzo [e]indole, reference compound]", "values": [{"measurement": "IC50", "setting": "[3]", "value": 3, "unit": "nM"}, {"measurement": "IC50", "setting": "[4]", "value": 10, "unit": "nM"}]}, {"compound": "CCOC(C)=O", "note": "[Ethyl acetate]", "values": [{"measurement": "logPow", "setting": "[2]", "value": 0.73}]}, {"compound": "CC(=O)Nc1cn(C)c(C(=O)Nc2cn(C)c(C(=O)Nc3cc(C(=O)NCCC(=O)Nc4cn(C)c(C(=O)Nc5cc(C(=O)Nc6cc(C(=O)NCCCC(=O)Nc7cn(C)c(C(=O)Nc8cn(C)c(C(=O)Nc9cc(C(=O)NCCC(=O)Nc%10cc(C(=O)Nc%11ccc%12[nH]c(C(=O)N%13CC(CCl)c%14c%13cc(O)c%13ccccc%14%13)cc%12c%11)n(C)c%10)n(C)c9)n8)n7)n(C)c6)n(C)c5)n4)n(C)c3)n2)n1", "note": "(stereo not shown) [CCC07-03]", "values": [{"measurement": "expression of PD-L1", "setting": "[5]; RKO cells, 50 nM, 24 hours", "value": "statistically significantly decreased"}, {"measurement": "expression of PD-L1", "setting": "[5]; RKO cells, 500 nM, 6 hours", "value": "tended to be decreased"}, {"measurement": "expression of PD-L1", "setting": "[5]; RKO cells, 5, 50, 500 nM, 48 hours", "value": "decreased according to the concentration"}, {"measurement": "expression of CTLA-4", "setting": "[6]; 500 nM, 24 hours", "value": "markedly decreased"}, {"measurement": "expression of CTLA-4", "setting": "[6]; 6 hours", "value": "elevated"}]}, {"compound": "N#Cc1ccccc1", "note": "[Benzonitrile]", "values": [{"measurement": "logPow", "setting": "[2]", "value": 1.56}]}, {"compound": "CC(=O)Nc1cn(C)c(C(=O)Nc2cn(C)c(C(=O)Nc3cc(C(=O)NCCC(=O)Nc4cc(C(=O)Nc5cn(C)c(C(=O)Nc6cn(C)c(C(=O)NCCCC(=O)Nc7cc(C(=O)Nc8cc(C(=O)Nc9cc(C(=O)NCCC(=O)Nc%10cn(C)c(C(=O)Nc%11ccc%12[nH]c(C(=O)N%13CC(CCl)c%14c%13cc(O)c%13ccccc%14%13)cc%12c%11)n%10)n(C)c9)n(C)c8)n(C)c7)n6)n5)n(C)c4)n(C)c3)n2)n1", "note": "(stereo not shown) [CCC07-04]", "values": [{"measurement": "expression of CTLA-4", "setting": "[7]; 6 hours", "value": "elevated"}, {"measurement": "state of the cells (cell death suggested)", "setting": "[7]; [10]", "value": "All the cells floated"}, {"measurement": "expression of Pd-11", "setting": "[8]; 100-500 nM, 6 hours", "value": "statistically significantly decreased"}, {"measurement": "state of the cells (cell death suggested)", "setting": "[8]; [10]", "value": "All the mouse B16F1 cells floated"}]}, {"compound": "ipilimumab: anti-CTLA-4 antibody", "values": [{"measurement": "objective response rate (ORR)", "setting": "[9]", "value": 11, "unit": "%"}]}]}
